Source: patent US20260262643A1, “HERBICIDAL BENZOXAZINES” (FMC CORPORATION, priority 2022, published 2026)
Read-outs that look alike come from different tables or passages of the source.

Columns and labels:
soybean = assay: Test A preemergence; type: in vivo, Glycine max; settings: Glycine max, pre-emergence, 240 h, read-out: Plant response rating, Soybean; for plant injury at 125 g/ha: 125 g ai/ha, visual injury after 10 days, 0 to 100 scale, 0 is no effect, 100 is complete control; for plant injury at 500 g/ha: 500 g ai/ha, 0 to 100 scale (0 no effect, 100 complete control), 10 days
Procedure, shortened: (§1)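 Seeds in loam–sand blend received a directed preemergence soil spray of compound in non-phytotoxic solvent with surfactant; postemergence plants (2–10 cm, one- to two-leaf stage) were sprayed with the same formulation. After 10 days in greenhouse, injury was rated visually versus untreated controls, 0 (no effect) to 100 (complete control).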

rice = assay: Test B flooded paddy test; type: in vivo, Oryza sativa; settings: Oryza sativa, 312 h; 250 g ai/ha, Flood, 13 days, 0 to 100 scale (0 no effect, 100 complete control); read-out: Plant response rating, Rice
Procedure, shortened: (§2)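 Compound is introduced into paddy water covering soil by 3 cm, treating plants that have reached two leaves. Pots are kept flooded at that depth under greenhouse conditions. Assessment at 13 days gives a 0–100 visual control score.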

barnyardgrass = assay: Test B flooded paddy test; type: in vivo, Echinochloa crus-galli; settings: Echinochloa crus-galli, 312 h, 250 g ai/ha, Flood, 13 days, 0 to 100 scale (0 no effect, 100 complete control); read-out: Plant response rating, Barnyardgrass
Procedure, shortened: as §2

foxtail, giant = assay: Test A postemergence; type: in vivo, Setaria faberi; settings: Setaria faberi, post-emergence, 240 h, read-out: Plant response rating, Foxtail, Giant; for pest or weed control at 125 g/ha: 125 g ai/ha; for pest or weed control at 500 g/ha: 500 g ai/ha
Procedure, shortened: as §1

sedge, umbrella = assay: Test B flooded paddy test; type: in vivo, Cyperus difformis; settings: Cyperus difformis, 312 h; 250 g ai/ha, Flood, 13 days, 0 to 100 scale (0 no effect, 100 complete control); read-out: Plant response rating, Sedge, Umbrella
Procedure, shortened: as §2

goosegrass [1] = assay: Test A postemergence; type: in vivo, Eleusine indica; settings: Eleusine indica, post-emergence, 240 h, read-out: Plant response rating, Goosegrass; for pest or weed control at 125 g/ha: 125 g ai/ha; for pest or weed control at 500 g/ha: 500 g ai/ha
Procedure, shortened: as §1

galium = assay: Test A postemergence; type: in vivo, Galium aparine; settings: Galium, post-emergence, 240 h, read-out: Plant response rating, Galium; for pest or weed control at 125 g/ha: 125 g ai/ha; for pest or weed control at 500 g/ha: 500 g ai/ha
Procedure, shortened: as §1

goosegrass [2] = assay: Test A preemergence; type: in vivo, Eleusine indica; settings: Eleusine indica, pre-emergence, 240 h, read-out: Plant response rating, Goosegrass; for pest or weed control at 125 g/ha: 125 g ai/ha, visual injury after 10 days, 0 to 100 scale, 0 is no effect, 100 is complete control; for pest or weed control at 500 g/ha: 500 g ai/ha, 0 to 100 scale (0 no effect, 100 complete control), 10 days
Procedure, shortened: as §1

ryegrass, Italian = assay: Test A postemergence; type: in vivo, Lolium multiflorum; settings: Lolium multiflorum, post-emergence, 240 h, read-out: Plant response rating, Ryegrass, Italian; for pest or weed control at 500 g/ha: 500 g ai/ha
Procedure, shortened: as §1

blackgrass = assay: Test A preemergence; type: in vivo, Alopecurus myosuroides; settings: Alopecurus myosuroides, pre-emergence, 240 h, read-out: Plant response rating, Blackgrass; for pest or weed control at 125 g/ha: 125 g ai/ha, visual injury after 10 days, 0 to 100 scale, 0 is no effect, 100 is complete control; for pest or weed control at 500 g/ha: 500 g ai/ha, 0 to 100 scale (0 no effect, 100 complete control), 10 days
Procedure, shortened: as §1

kochia = assay: Test A postemergence; type: in vivo, Bassia scoparia; settings: Bassia scoparia, post-emergence, 240 h, read-out: Plant response rating, Kochia; for pest or weed control at 125 g/ha: 125 g ai/ha; for pest or weed control at 500 g/ha: 500 g ai/ha
Procedure, shortened: as §1

pigweed, palmer = assay: Test A postemergence; type: in vivo, Amaranthus palmeri; settings: Amaranthus palmeri, post-emergence, 240 h, read-out: Plant response rating, Pigweed, Palmer; for pest or weed control at 500 g/ha: 500 g ai/ha
Procedure, shortened: as §1

ragweed = assay: Test A preemergence; type: in vivo, Ambrosia artemisiifolia; settings: Ambrosia artemisiifolia, pre-emergence, 240 h, read-out: Plant response rating, Ragweed; for pest or weed control at 125 g/ha: 125 g ai/ha, visual injury after 10 days, 0 to 100 scale, 0 is no effect, 100 is complete control; for pest or weed control at 500 g/ha: 500 g ai/ha, 0 to 100 scale (0 no effect, 100 complete control), 10 days
Procedure, shortened: as §1

corn = assay: Test A postemergence; type: in vivo, Zea mays; settings: Zea mays, post-emergence, 240 h; for Corn plant response rating (crop injury, 0 = no effect, 100 = complete kill) at 125 g/ha: 125 g ai/ha; for Corn plant response rating (crop injury, 0 = no effect, 100 = complete kill) at 500 g/ha: 500 g ai/ha
Procedure, shortened: as §1

[3] = postemergence, 10 days, visual injury, 0 to 100 scale (0 no effect, 100 complete control)
[4] = 125 g ai/ha, postemergence, 10 days, visual injury, 0 to 100 scale (0 no effect, 100 complete control)

Row | Compound | plant injury at 125 g/ha (soybean) [%] | plant injury at 500 g/ha (soybean) [%] | plant injury at 250 g/ha (rice) [%] | pest or weed control at 250 g/ha (barnyardgrass) [%] | pest or weed control at 125 g/ha (foxtail, giant; [3]) [%] | pest or weed control at 250 g/ha (sedge, umbrella) [%] | pest or weed control at 125 g/ha (goosegrass [1]; [3]) [%] | pest or weed control at 125 g/ha (galium; [3]) [%] | pest or weed control at 125 g/ha (goosegrass [2]) [%] | pest or weed control at 500 g/ha (goosegrass [2]) [%] | pest or weed control at 125 g/ha (blackgrass) [%] | pest or weed control at 500 g/ha (blackgrass) [%] | pest or weed control at 125 g/ha (kochia; [3]) [%] | pest or weed control at 125 g/ha (ragweed) [%] | pest or weed control at 500 g/ha (ragweed) [%] | Corn plant response rating (crop injury, 0 = no effect, 100 = complete kill) at 125 g/ha (corn; [3]) [%] | further results
1 | C#Cc1ncn(-c2cccc(C(=O)N3C[C@H](C)Oc4c(C)cccc43)c2)n1 [Compound 64, [(2S)-2,3-Dihydro-2,8-dimethyl-4H-1,4-benzoxazin-4-yl][3-(3-ethynyl-1H-1,2,4-triazol-1-yl)phenyl]methanone] | 20 | 30 | 0 | 0 | 20 | 75 | 10 | 90 | 60 | 100 | 80 | 90 | 60 | 0 | 0 | 10 | pest or weed control at 500 g/ha (foxtail, giant; Postemergence, 0 to 100 scale): 90%; pest or weed control at 500 g/ha (goosegrass [1]; Postemergence, 0 to 100 scale): 30%; pest or weed control at 500 g/ha (galium; Postemergence, 0 to 100 scale): 100%; pest or weed control at 125 g/ha (ryegrass, Italian; [4]): 40%; pest or weed control at 500 g/ha (ryegrass, Italian; Postemergence, 0 to 100 scale): 100%; pest or weed control at 500 g/ha (kochia; Postemergence, 0 to 100 scale): 80%; pest or weed control at 125 g/ha (pigweed, palmer; [4]): 30%; pest or weed control at 500 g/ha (pigweed, palmer; Postemergence, 0 to 100 scale): 50%; Corn plant response rating (crop injury, 0 = no effect, 100 = complete kill) at 500 g/ha (corn; Postemergence, 0 to 100 scale): 80%
2 | Cc1ccc(-n2cnc(C(C)C)n2)cc1C(=O)N1C[C@H](C)Oc2c(Cl)cccc21 [Compound 73, [(2S)-8-Chloro-2,3-dihydro-2-methyl-4H-1,4-benzoxazin-4-yl][2-methyl-5-[3-(1-methylethyl)-1H-1,2,4-triazol-1-yl]phenyl]methanone] | 60 | 100 | 20 | 45 | 80 | 70 | 20 | 100 | 100 | 100 | 70 | 90 | 90 | 30 | 90 | 70 | pest or weed control at 500 g/ha (foxtail, giant; [3]): 90%; pest or weed control at 500 g/ha (goosegrass [1]; [3]): 60%; pest or weed control at 500 g/ha (galium; [3]): 100%; pest or weed control at 500 g/ha (ryegrass, Italian; [3]): 100%; pest or weed control at 500 g/ha (kochia; [3]): 100%; pest or weed control at 500 g/ha (pigweed, palmer; [3]): 90%; Corn plant response rating (crop injury, 0 = no effect, 100 = complete kill) at 500 g/ha (corn; [3]): 70%
